According to patent US6855710B2, “Substituted indolines with an inhibitory effect on various kinases and complexes of CDKs” (Boehringer Ingelheim Pharma KG, priority 1998, dated 2005):

Row | melting point | SMILES
1 | 95 to 98 °C | CCOC(=O)CN(C)C(=O)c1ccc(N/C(=C2\C(=O)Nc3ccccc32)c2ccccc2)cc1 [Example 394, (Z)-3-{1-[4-(N-ethoxycarbonylmethyl-N-methyl-aminocarbonyl)-phenylamino]-1-phenyl-methylidene}-2-indolinone]
2 | 269 °C | CN(c1ccc(N/C(=C2\C(=O)Nc3ccccc32)c2ccccc2)cc1)S(C)(=O)=O [Example 186, (Z)-3-{1-[4-(N-methyl-N-methylsulphonyl-amino)-phenylamino]-1-phenyl-methylidene}-2-indolinone]
3 | 272 to 274 °C | CCC(=O)N(CCN(C)C)c1ccc(N/C(=C2\C(=O)Nc3ccccc32)c2ccccc2)cc1 [Example 341, (Z)-3-{1-[4-(N-(2-dimethylaminoethyl)-N-propionyl-amino)-phenylamino]-1-phenyl-methylidene}-2-indolinone]
4 | 203 °C | CCS(=O)(=O)N(CC(=O)NCCN(C)C)c1ccc(N/C(=C2\C(=O)Nc3ccccc32)c2ccccc2)cc1 [Example 301, (Z)-3-{1-[4-(N-(2-dimethylamino-ethylaminocarbonylmethyl)-N-ethylsulphonyl-amino)-phenylamino]-1-phenyl-methylidene}-2-indolinone]
5 | 272 to 274 °C | CN(C)CCN(C(=O)c1ccccc1)c1ccc(N/C(=C2\C(=O)Nc3ccccc32)c2ccccc2)cc1 [Example 452, (Z)-3-[1-(4-(N-(2-dimethylaminoethyl)-N-benzoyl-amino)-phenylamino)-1-phenyl-methylidene]-2-indolinone]
6 | 123 to 125 °C | CC(=O)NCc1ccc(/C(Nc2ccc(N(C)C(=O)CN(C)C)cc2)=C2/C(=O)Nc3ccccc32)cc1 [Example 431, (Z)-3-{1-[4-(N-dimethylaminomethylcarbonyl-N-methyl-amino)-phenylamino]-1-(4-acetylaminomethyl-phenyl)-methylidene}-2-indolinone]
7 | 280 °C | CN(C)S(=O)(=O)c1ccc(N/C(=C2\C(=O)Nc3ccccc32)c2ccccc2)cc1 [Example 405, (Z)-3-{1-[4-(dimethylaminosulphonyl)-phenylamino]-1-phenyl-methylidene}-2-indolinone]
8 | 227 to 228 °C | CCOC(=O)c1ccc(N/C(=C2\C(=O)Nc3ccccc32)c2ccccc2)cc1 [Example 13, (Z)-3-[1-(4-ethoxycarbonyl-phenylamino)-1-phenyl-methylidene]-2-indolinone]
9 | 245 °C | CCCS(=O)(=O)N(CCN(C)C)c1ccc(N/C(=C2\C(=O)Nc3ccccc32)c2ccccc2)cc1 [Example 311, (Z)-3-{1-[4-(N-(2-dimethylaminoethyl)-N-propylsulphonyl-amino)-phenylamino]-1-phenyl-methylidene}-2-indolinone]
10 | 228 to 230 °C | CN(Cc1ccc(N/C(=C2\C(=O)Nc3ccc([N+](=O)[O-])cc32)c2ccccc2)cc1)c1ccccc1 [Example 234, (Z)-3-{1-[4-(N-methyl-N-phenyl-aminomethyl)-phenylamino]-1-phenyl-methylidene}-5-nitro-2-indolinone]

The next lines start with the compound.

Row | SMILES | melting point
11 | O=CNc1ccc(N/C(=C2\C(=O)Nc3ccccc32)c2ccccc2)cc1 [Example 29, (Z)-3-[1-(4-formylamino-phenylamino)-1-phenyl-methylidene]-2-indolinone] | 268 to 269 °C
12 | CC(C)(C)OC(=O)N1CCN(Cc2ccc(N/C(=C3\C(=O)Nc4ccc([N+](=O)[O-])cc43)c3ccccc3)cc2)CC1 [Example 244, (Z)-3-{1-[4-(4-tert.butoxycarbonyl-piperazin-1-ylmethyl)-phenylamino]-1-phenyl-methylidene}-5-nitro-2-indolinone] | 236 to 237 °C (dec.)
13 | CN1CCN(CCc2ccc(N/C(=C3\C(=O)Nc4ccc([N+](=O)[O-])cc43)c3ccccc3)cc2)CC1 [Example 135, (Z)-3-{1-[4-(2-(4-methylpiperazino)-ethyl)-phenylamino]-1-phenyl-methylidene}-5-nitro-2-indolinone] | 238 to 240 °C
14 | O=C1Nc2ccccc2/C1=C(/Nc1ccc(NCCN2CCOCC2)cc1)c1ccccc1 [Example 346, (Z)-3-{1-[4-(2-morpholinoethylamino)-phenylamino]-1-phenyl-methylidene}-2-indolinone] | 257 °C
15 | CN(C)C(=O)C1CCN(CCc2ccc(N/C(=C3\C(=O)Nc4ccc([N+](=O)[O-])cc43)c3ccccc3)cc2)CC1 [Example 264, (Z)-3-{1-[4-(2-(4-dimethylaminocarbonyl-piperidino)-ethyl)-phenylamino]-1-phenyl-methylidene}-5-nitro-2-indolinone] | 288 °C (dec.)
16 | COC(=O)CCNC(=O)c1ccc(/C(Nc2ccc(CN3CCCCC3)cc2)=C2/C(=O)Nc3ccc([N+](=O)[O-])cc32)cc1 [Example 447, (Z)-3-[1-(4-piperidinomethyl-phenylamino)-1-(4-(2-methoxycarbonyl-ethylaminocarbonyl)-phenyl)-methylidene]-5-nitro-2-indolinone] | 130 °C
17 | O=C1Nc2ccc([N+](=O)[O-])cc2/C1=C(/Nc1ccc(CNc2ccccn2)cc1)c1ccccc1 [Example 279, (Z)-3-{1-[4-(pyridine-2-ylaminomethyl)-phenylamino]-1-phenyl-methylidene}-5-nitro-2-indolinone] | 266 to 268 °C
18 | CC(=O)Nc1cccc(N/C(=C2\C(=O)Nc3ccccc32)c2ccccc2)c1 [Example 32, (Z)-3-[1-(3-acetylamino-phenylamino)-1-phenyl-methylidene]-2-indolinone] | 285 to 288 °C
19 | O=C1Nc2ccc([N+](=O)[O-])cc2/C1=C(/Nc1ccc(CCN2CCCCC2)cc1)c1ccccc1 [Example 132, (Z)-3-{1-[4-(2-piperidinoethyl)-phenylamino]-1-phenyl-methylidene}-5-nitro-2-indolinone] | 236 to 237 °C
20 | CN(C)C(=O)C1CCN(Cc2ccc(N/C(=C3\C(=O)Nc4ccc([N+](=O)[O-])cc43)c3ccccc3)cc2)CC1 [Example 249, (Z)-3-{1-[4-(4-dimethylaminocarbonyl-piperidinomethyl)-phenylamino]-1-phenyl-methylidene}-5-nitro-2-indolinone] | 272 to 273 °C
21 | CC(C)CN(Cc1ccc(N/C(=C2\C(=O)Nc3ccc([N+](=O)[O-])cc32)c2ccccc2)cc1)CC(C)C [Example 163, (Z)-3-[1-(4-Diisobutylaminomethyl-phenylamino)-1-phenyl-methylidene]-5-nitro-2-indolinone] | 204 to 207 °C
22 | CN(C)C(=O)CCNCc1cccc(N/C(=C2\C(=O)Nc3ccc([N+](=O)[O-])cc32)c2ccccc2)c1 [Example 253, (Z)-3-{1-[3-(2-dimethylaminocarbonyl-ethylaminomethyl)-phenylamino]-1-phenyl-methylidene}-5-nitro-2-indolinone] | 177 to 179 °C
23 | O=C1Nc2ccc([N+](=O)[O-])cc2/C1=C(/Nc1ccc(CN2CCCCC2)cc1)c1ccc(Cn2ccnc2)cc1 [Example 439, (Z)-3-{1-[4-piperidinomethyl-phenylamino]-1-[4-(imidazol-1-yl-methyl)-phenyl]-methylidene}-5-nitro-2-indolinone] | 226 to 228 °C
